Reference: ChEMBL document CHEMBL1125938, “A novel targeted delivery system utilizing a cephalosporin-oncolytic prodrug activated by an antibody -lactamase conjugate for the treatment of cancer” (Bioorg Med Chem Lett, 1991)
Converted amounts (≈) assume the structure as drawn.

Assays:
[1] = test system: LS174T; assay: Compound was evaluated for in vitro cytotoxicity after 48 hour, against CEA-bearing LS174T human colon carcinoma cells, in absence of beta-L-CEM 231 conjugate; assay type: functional, cell-based
[2] = test system: LS174T; assay: Compound was evaluated for in vitro cytotoxicity after 6 hour, against CEA-bearing LS174T human colon carcinoma cells, in absence of beta-L-CEM 231 conjugate; assay type: functional, cell-based

Row | SMILES | IC50 [1] [ng/mL] | IC50 ([2]; Homo sapiens, LS174T, 6 h, read-out: IC50) [µg/mL] | IC50 ([2]; ls174t) [µg/mL]
1 | CC[C@]1(O)C[C@@H]2CN(CCc3c([nH]c4ccccc34)[C@@](C(=O)OC)(c3cc4c(cc3OC)N(C)C3[C@]45CCN4CC=C[C@@](CC)([C@@H](O)[C@]3(O)C(=O)NCCS)[C@H]45)C2)C1 (stereo not given in full) | < 1 | 0.26 (≈ 0.319 µM) | 
2 | CC[C@]1(O)C[C@@H]2CN(CCc3c([nH]c4ccccc34)[C@@](C(=O)OC)(c3cc4c(cc3OC)N(C)C3[C@]45CCN4CC=C[C@@](CC)([C@@H](O)[C@]3(O)C(=O)NCCSCC3=C(C(=O)O)N6C(=O)[C@@H](NC(=O)Cc7cccs7)[C@H]6SC3)[C@H]45)C2)C1 (single isomer, unassigned; (+)) |  |  | 0.26 (≈ 0.226 µM)
3 | CC[C@]1(O)C[C@@H]2CN(CCc3c([nH]c4ccccc34)[C@@](C(=O)OC)(c3cc4c(cc3OC)N(C)C3[C@]45CCN4CC=C[C@@](CC)([C@@H](O)[C@]3(O)C(=O)NCCSCC3=C(C(=O)O)N6C(=O)[C@@H](NC(=O)Cc7cccs7)[C@H]6SC3)[C@H]45)C2)C1 (single isomer, unassigned; (-)) | < 1 |  | 2.15 (≈ 1.87 µM)
